This note sets out measurements from patent publication US8557796B2, “Substituted 1-oxa-2,8-diaza-spiro [4,5] dec-2-ene derivatives and related treatment methods” (Gruenenthal GmbH, priority 2001, dated 2013).

This assay deals with T1, NA transporter (Rattus norvegicus, UniProt Q9WTR4).
T1 construct: synaptosomes from rat brain regions were freshly isolated; from tissue; host or cells: P2 synaptosome fraction from hypothalamus of male rat brain
T1 sequence (Q9WTR4 1-597): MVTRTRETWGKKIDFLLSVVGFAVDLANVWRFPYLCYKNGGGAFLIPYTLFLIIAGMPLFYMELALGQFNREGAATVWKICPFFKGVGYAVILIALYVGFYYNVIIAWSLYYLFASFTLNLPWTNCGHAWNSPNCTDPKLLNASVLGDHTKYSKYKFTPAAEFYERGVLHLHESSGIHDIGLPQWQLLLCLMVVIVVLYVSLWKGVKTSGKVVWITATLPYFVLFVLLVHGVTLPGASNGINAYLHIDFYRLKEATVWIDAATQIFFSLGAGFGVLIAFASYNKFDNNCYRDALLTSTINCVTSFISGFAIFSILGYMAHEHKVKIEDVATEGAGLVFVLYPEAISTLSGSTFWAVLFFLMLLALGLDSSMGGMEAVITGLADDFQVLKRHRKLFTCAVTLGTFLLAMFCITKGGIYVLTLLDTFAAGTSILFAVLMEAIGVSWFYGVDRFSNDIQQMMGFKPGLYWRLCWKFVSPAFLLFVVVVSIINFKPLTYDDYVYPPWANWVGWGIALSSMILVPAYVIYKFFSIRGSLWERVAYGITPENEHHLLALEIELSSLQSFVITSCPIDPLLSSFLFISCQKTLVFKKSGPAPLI
In words: Noradrenalin uptake inhibition (NA-uptake) in synaptosomes. It counts as biochemical. Conditions: rat hypothalamus synaptosomes. The text has this:
Tests on Noradrenalin Uptake Inhibition (NA-Uptake Inhibition)
In order to be able to carry out these in vitro studies, synaptosomes from rat brain regions were freshly isolated.
As for `O=C(NCc1cccs1)C1=NOC2(CCN(C(=O)c3cccc(Cl)c3F)CC2)C1` [Example 146, 8-(3-chloro-2-fluorobenzoyl)-1-oxa-2,8-diaza-spiro[4,5]dec-2-ene-3-carboxylic acid (thiophen-2-ylmethyl)-amide], the inhibition at 10 µM is 61%.

`CC(Oc1ccccc1)C(=O)N1CCC2(CC1)CC(C(=O)NCc1ccccc1)=NO2` (stereo not drawn) [Example 149, 8-(2-phenoxy-propionyl)-1-oxa-2,8-diaza-spiro[4,5]dec-2-ene-3-carboxylic acid benzylamide]: the inhibition at 10 µM was determined as 50%. `O=C(NC1CCCC1)C1=NOC2(CCN(C(=O)c3cccnc3Oc3ccccc3)CC2)C1` [Example 153, 8-(2-phenoxy-pyridine-3-carbonyl)-1-oxa-2,8-diaza-spiro[4,5]dec-2-ene-3-carboxylic acid cyclopentylamide] had an inhibition at 10 µM of 45%. For the compound `CCOC(=O)C1CCCCN1C(=O)C1=NOC2(CCN(S(=O)(=O)c3ccc(Cl)s3)CC2)C1` (stereo not drawn) [Example 155, 1-[8-(5-chloro-thiophene-2-sulphonyl)-1-oxa-2,8-diaza-spiro[4,5]dec-2-ene-3-carbonyl]-piperidine-2-carboxylic acid ethyl ester], testing at 10 µM gave an inhibition of 41%.

For the compound `CN(C)S(=O)(=O)N1CCC2(CC1)CC(C(=O)NC1CCCC1OCc1ccccc1)=NO2` (stereo not drawn) [Example 163, 8-dimethylsulphamoyl-1-oxa-2,8-diaza-spiro[4,5]dec-2-ene-3-acarboxylic cid (2-benzyloxy-cyclopentyl)-amide], the “NA-uptake, 10 μM, % inhibition” value amounted to 62%. For `O=C(NCc1ccccc1)C1=NOC2(CCN(C(=O)COc3cccc(Cl)c3)CC2)C1` [Example 166, 8-[2-(3-chloro-phenoxy)-acetyl]-1-oxa-2,8-diaza-spiro[4,5]dec-2-ene-3-carboxylic acid benzylamide], at 10 µM the inhibition was 53%. For the compound `N#CCCN(CCc1ccccn1)C(=O)C1=NOC2(CCN(S(=O)(=O)c3ccc(F)cc3)CC2)C1` [Example 167, 8-(4-fluoro-benzenesulphonyl)-1-oxa-2,8-diaza-spiro[4,5]dec-2-ene-3-carboxylic acid (2-cyano-ethyl)-(2-pyridin-2-yl-ethyl)-amide], at 10 µM the inhibition was 63%. For `CC(Cc1ccc(Cl)cc1)NC(=O)C1=NOC2(CCN(S(=O)(=O)c3ccc(Cl)s3)CC2)C1` (stereo not drawn) [Example 168, 8-(5-chloro-thiophene-2-sulphonyl)-1-oxa-2,8-diaza-spiro[4,5]dec-2-ene-3-carboxylic acid [2-(4-chloro-phenyl)-1-methyl-ethyl]-amide], the inhibition at 10 µM is 79%. Same read-out and setting: the value for `COc1ccc(S(=O)(=O)N2CCC3(CC2)CC(C(=O)NC2CCCC2OCc2ccccc2)=NO3)cc1` (stereo not drawn) [Example 169, 8-(4-methoxy-benzenesulphonyl)-1-oxa-2,8-diaza-spiro[4,5]dec-2-ene-3-carboxylic acid (2-benzyloxy-cyclopentyl)-amide] was 64%; that for `Cc1ccc(F)c(C(=O)N2CCC3(CC2)CC(C(=O)NCc2cccs2)=NO3)c1F` [Example 170, 8-(2,6-difluoro-3-methyl-benzoyl)-1-oxa-2,8-diaza-spiro[4,5]dec-2-ene-3-carboxylic acid (thiophen-2-ylmethyl)-amide] was 43%; that for `O=C(NCc1ccccc1)C1=NOC2(CCN(C(=O)COCc3ccccc3)CC2)C1` [Example 171, 8-(2-benzyloxy-acetyl)-1-oxa-2,8-diaza-spiro[4,5]dec-2-ene-3-carboxylic acid benzylamide] was 73%. In turn, `O=C(Nc1ccccc1)C1=NOC2(CCN(C(=O)c3cccc(Cl)c3Cl)CC2)C1` [Example 172, 8-(2,3-dichloro-benzoyl)-1-oxa-2,8-diaza-spiro[4,5]dec-2-ene-3-carboxylic acid phenylamide] came in with an inhibition at 10 µM of 41%. On the same count and under the same terms, the value for `COc1ccc(Br)cc1S(=O)(=O)N1CCC2(CC1)CC(C(=O)NC1CCCC1)=NO2` [Example 173, 8-(5-bromo-2-methoxy-benzenesulphonyl)-1-oxa-2,8-diaza-spiro[4,5]dec-2-ene-3-carboxylic acid cyclopentylamide] was 60%. Turning to `O=C(C1=NOC2(CCN(S(=O)(=O)c3ccc(OC(F)(F)F)cc3)CC2)C1)N1CCN(CCCc2ccccc2)CC1` [Example 176, [4-(3-phenyl-propyl)-piperazin-l-yl]-[8-(4-trifluoromethoxy-benzenesulphonyl)-1-oxa-2,8-diaza-spiro [4,5]dec-2-en-3-yl]-methanone], the “NA-uptake, 10 μM, % inhibition” value worked out at 52%. For the compound `Cc1onc(-c2c(F)cccc2Cl)c1C(=O)N1CCC2(CC1)CC(C(=O)NCc1ccccc1)=NO2` [Example 177, 8-[3-(2-chloro-6-fluorophenyl)-5-methyl-isoxazole-4-carbonyl]-1-oxa-2,8-diaza-spiro [4,5]dec-2-ene-3-carboxylic acid benzylamide], the inhibition at 10 µM was found to be 47%. `CC(C)CNC(=O)C1=NOC2(CCN(C(=O)c3cccc4ccccc34)CC2)C1` [Example 178, 8-(naphthalene-1-carbonyl)-1-oxa-2,8-diaza-spiro[4,5]dec-2-ene-3-carboxylic acid isobutyl-amide] yielded an inhibition at 10 µM of 51%.

`CCOC(=O)C1CCCCN1C(=O)C1=NOC2(CCN(C(=O)c3cc(C(C)(C)C)oc3C)CC2)C1` (stereo not drawn) [Example 179, 1-[8-(5-tert-butyl-2-methyl-furan-3-carbonyl)-1-oxa-2,8-diaza-spiro[4,5]dec-2-ene-3-carbonyl]-piperidine-2-carboxylic acid ethyl ester] displayed an inhibition at 10 µM of 49%. On the same count and under the same terms, the value for `O=C(NCc1ccccc1)C1=NOC2(CCN(C(=O)c3cccc(SC(F)F)c3)CC2)C1` [Example 180, 8-(3-difluoromethylsulphanyl-benzoyl)-1-oxa-2,8-diaza-spiro[4,5]dec-2-ene-3-carboxylic acid benzylamide] was 61%. As to `O=C(Nc1ccccc1)C1=NOC2(CCN(C(=O)c3ccc(Br)cc3)CC2)C1` [Example 181, 8-(4-bromo-benzoyl)-1-oxa-2,8-diaza-spiro[4,5]dec-2-ene-3-acarboxylic cid phenylamide], the “NA-uptake, 10 μM, % inhibition” value is reported as 51%. The compound `COc1ccc(S(=O)(=O)N2CCC3(CC2)CC(C(=O)NC2CC2c2ccccc2)=NO3)cc1` (stereo not drawn) [Example 182, 8-(4-methoxy-benzenesulphonyl)-1-oxa-2,8-diaza-spiro[4,5]dec-2-ene-3-carboxylic acid (2-phenyl-cyclopropyl)-amide] showed an inhibition at 10 µM of 73%. In the case of `O=C(NCc1cccs1)C1=NOC2(CCN(C(=O)CCCOc3ccccc3)CC2)C1` [Example 183], the “NA-uptake, 10 μM, % inhibition” value turned out to be 67%.

Compound `O=C(NCc1cccs1)C1=NOC2(CCN(C(=O)c3ccc(F)c(Cl)c3)CC2)C1` [Example 184, 8-(3-chloro-4-fluorobenzoyl)-1-oxa-2,8-diaza-spiro[4,5]dec-2-ene-3-carboxylic acid (thiophen-2-ylmethyl)-amide] gave an inhibition at 10 µM of 62%. For the compound `CCSCCNC(=O)C1=NOC2(CCN(C(=O)c3cc(C(C)(C)C)nn3C)CC2)C1` [Example 185, 8-(5-tert-butyl-2-methyl-2H-pyrazole-3-carbonyl)-1-oxa-2,8-diaza-spiro[4,5]dec-2-ene-3-carboxylic acid (2-ethylsulphanyl-ethyl)-amide], at 10 µM the inhibition was 45%. `O=C(C1=NOC2(CCN(S(=O)(=O)c3ccc(F)cc3)CC2)C1)N1CCN(CCCc2ccccc2)CC1` [Example 186, [8-(4-fluoro-benzenesulphonyl)-1-oxa-2,8-diaza-spiro[4,5]dec-2-en-3-yl]-[4-(3-phenyl-propyl)-piperazin-1-yl]-methanone] returned an inhibition at 10 µM of 63%. `O=C(NCc1ccncc1)C1=NOC2(CCN(C(=O)c3ccc(OC(F)(F)F)cc3)CC2)C1` [Example 187, 8-(4-trifluoromethoxy-benzoyl)-1-oxa-2,8-diaza-spiro[4,5]dec-2-ene-3-carboxylic acid (pyridin-4-ylmethyl)-amide] came in with an inhibition at 10 µM of 44%. For the compound `O=C(NC1CCCC1)C1=NOC2(CCN(C(=O)c3ccccc3COC(=O)c3ccccc3)CC2)C1` [Example 188], the “NA-uptake, 10 μM, % inhibition” value came out at 49%. With `CN(C)S(=O)(=O)N1CCC2(CC1)CC(C(=O)N1CCN(Cc3ccc(C(C)(C)C)cc3)CC1)=NO2` [Example 189, 3-[4-(4-tert-butyl-benzyl)-piperazine-1-carbonyl]-1-oxa-2,8-diaza-spiro[4,5]dec-2-ene-8-sulphonic acid dimethylamide], 10 µM produced 45% inhibition. As for `O=C(NC1CCCC1OCc1ccccc1)C1=NOC2(CCN(S(=O)(=O)c3ccc(Cl)s3)CC2)C1` (stereo not drawn) [Example 191], the “NA-uptake, 10 μM, % inhibition” value is 74%. With `O=C(NCc1cccs1)C1=NOC2(CCN(C(=O)c3cccc4ccccc34)CC2)C1` [Example 192, 8-(naphthalene-1-carbonyl)-1-oxa-2,8-diaza-spiro[4,5]dec-2-ene-3-carboxylic acid (thiophen-2-ylmethyl)-amide], the inhibition at 10 µM came to 41%. `O=C(NCCCc1ccccc1)C1=NOC2(CCN(S(=O)(=O)c3ccc(F)cc3)CC2)C1` [Example 193, 8-(4-fluoro-benzenesulphonyl)-1-oxa-2,8-diaza-spiro[4,5]dec-2-ene-3-carboxylic acid (3-phenyl-propyl)-amide] yielded an inhibition at 10 µM of 47%. Take `O=C(NCC1COc2ccccc2O1)C1=NOC2(CCN(S(=O)(=O)c3ccc(Cl)s3)CC2)C1` (stereo not drawn) [Example 194, 8-(5-chloro-thiophene-2-sulphonyl)-1-oxa-2,8-diaza-spiro[4,5]dec-2-ene-3-carboxylic acid (2,3-dihydro-benzo[1,4]dioxin-2-ylmethyl)-amide]: the inhibition at 10 µM turned out to be 65%. As for `CCOC(=O)C1CCCCN1C(=O)C1=NOC2(CCN(C(=O)c3ccc(C(C)(C)C)cc3)CC2)C1` (stereo not drawn) [Example 195, 1-[8-(4-tert-butyl-benzoyl)-1-oxa-2,8-diaza-spiro[4,5]dec-2-ene-3-carbonyl]-piperidine-2-carboxylic acid ethyl ester], the inhibition at 10 µM came to 41%. Regarding `O=C(NCCc1cccc(C(F)(F)F)c1)C1=NOC2(CCN(S(=O)(=O)c3ccc(F)cc3)CC2)C1` [Example 196], the “NA-uptake, 10 μM, % inhibition” value worked out at 40%.

Broadly, the inhibition is the drop in the measured response relative to a control, in per cent.
